Like-named read-outs stand apart in the source and are kept apart here.
Experiments:
[1] = molecular target: XO activity (oxidase-type xanthine oxidoreductase) (Rattus norvegicus, UniProt P22985); assay: Prolonged inhibition of tissue and plasma XO activity after oral administration (pterin-based assay); conditions: 27 h
Procedure: The tissue includes liver, kidney, adipose tissue, intestine and vessel.
A test compound suspended in a 0.5% methylcellulose solution was administered to 7 to 9 week-old Sprague-Dawley male rats (Japan Charles River Co.) by oral gavage administration using a feeding needle. The blood was collected from the abdominal vein and tissue was collected at 24 or 27 hours after administration. Plasma sample was prepared by centrifugation.
Tissue XO activity, tissue XOR activity and plasma XO activity were measured by the pterin-based assay which utilizes the reaction that pterin is oxidized by each type of xanthine oxidoreductase to produce fluorescent isoxanthopterin. […] Then the homogenates were centrifuged 12,000 rpm for 15 min at 4° C. When measured XO activity, the supernatant of tissue and plasma were respectively co-incubated with 50 μM pterin solution at 37° C. When measured XOR activity, the supernatant of tissue homogenate was co-incubated with 50 μM pterin and 50 μM methylene blue solution at 37° C. As a control, oxidase-type xanthine oxidoreductase (from buttermilk, manufactured by Calbiochem Novabiochem Corp.) was also incubated with pterin solution in the same manner. XO activity and XOR activity of the samples were determined from fluorescence intensity which normalized by the intensity value of control and protein concentration.
The percentage of XO activity inhibition and XOR activity inhibition were determined by the following expression:
Percentage of XO or XOR activity inhibition (%)=(XO or XOR activity of the control animal−XO or XOR activity of the test compound-administered animal)×100/XO or XOR activity of the control animal.

[2] = Hypouricemic effect (oxonic acid-induced hyperuricemic beagle dogs); assay type: in vivo; conditions: hyperuricemic beagle dog, oral, 10 mg/kg, 8 hours after administration
Procedure: Potassium oxonate (50 mg/kg) was subcutaneously administrated before and 4 hours after compound administration. After the blood was collected from the cephalic vein at 8 hours after administration, the plasma was separated. The level of uric acid in the plasma sample was measured by LC-MS/MS method and the percentage of hypouricemic effect was determined by the following expression:
Percentage of hypouricemic effect (%)=(Level of uric acid of the control animal−Level of uric acid of the test compound-administered animal)×100/Level of uric acid of the control animal.

[3] = read-out: % inhibition of XO activity (vs. vehicle), Kidney, 1 mg/kg, 27 hours after administration
[4] = read-out: % inhibition of XO activity (vs. vehicle), Kidney, 10 mg/kg, 27 hours after administration
[5] = read-out: % inhibition of XO activity (vs. vehicle), Liver, 1 mg/kg, 27 hours after administration
[6] = read-out: % inhibition of XO activity (vs. vehicle), Liver, 10 mg/kg, 27 hours after administration
[7] = read-out: % inhibition of XO activity (vs. vehicle), Plasma, 1 mg/kg, 27 hours after administration
[8] = read-out: % inhibition of XO activity (vs. vehicle), Plasma, 10 mg/kg, 27 hours after administration

Sequence of XO activity (oxidase-type xanthine oxidoreductase) (P22985 whole entry): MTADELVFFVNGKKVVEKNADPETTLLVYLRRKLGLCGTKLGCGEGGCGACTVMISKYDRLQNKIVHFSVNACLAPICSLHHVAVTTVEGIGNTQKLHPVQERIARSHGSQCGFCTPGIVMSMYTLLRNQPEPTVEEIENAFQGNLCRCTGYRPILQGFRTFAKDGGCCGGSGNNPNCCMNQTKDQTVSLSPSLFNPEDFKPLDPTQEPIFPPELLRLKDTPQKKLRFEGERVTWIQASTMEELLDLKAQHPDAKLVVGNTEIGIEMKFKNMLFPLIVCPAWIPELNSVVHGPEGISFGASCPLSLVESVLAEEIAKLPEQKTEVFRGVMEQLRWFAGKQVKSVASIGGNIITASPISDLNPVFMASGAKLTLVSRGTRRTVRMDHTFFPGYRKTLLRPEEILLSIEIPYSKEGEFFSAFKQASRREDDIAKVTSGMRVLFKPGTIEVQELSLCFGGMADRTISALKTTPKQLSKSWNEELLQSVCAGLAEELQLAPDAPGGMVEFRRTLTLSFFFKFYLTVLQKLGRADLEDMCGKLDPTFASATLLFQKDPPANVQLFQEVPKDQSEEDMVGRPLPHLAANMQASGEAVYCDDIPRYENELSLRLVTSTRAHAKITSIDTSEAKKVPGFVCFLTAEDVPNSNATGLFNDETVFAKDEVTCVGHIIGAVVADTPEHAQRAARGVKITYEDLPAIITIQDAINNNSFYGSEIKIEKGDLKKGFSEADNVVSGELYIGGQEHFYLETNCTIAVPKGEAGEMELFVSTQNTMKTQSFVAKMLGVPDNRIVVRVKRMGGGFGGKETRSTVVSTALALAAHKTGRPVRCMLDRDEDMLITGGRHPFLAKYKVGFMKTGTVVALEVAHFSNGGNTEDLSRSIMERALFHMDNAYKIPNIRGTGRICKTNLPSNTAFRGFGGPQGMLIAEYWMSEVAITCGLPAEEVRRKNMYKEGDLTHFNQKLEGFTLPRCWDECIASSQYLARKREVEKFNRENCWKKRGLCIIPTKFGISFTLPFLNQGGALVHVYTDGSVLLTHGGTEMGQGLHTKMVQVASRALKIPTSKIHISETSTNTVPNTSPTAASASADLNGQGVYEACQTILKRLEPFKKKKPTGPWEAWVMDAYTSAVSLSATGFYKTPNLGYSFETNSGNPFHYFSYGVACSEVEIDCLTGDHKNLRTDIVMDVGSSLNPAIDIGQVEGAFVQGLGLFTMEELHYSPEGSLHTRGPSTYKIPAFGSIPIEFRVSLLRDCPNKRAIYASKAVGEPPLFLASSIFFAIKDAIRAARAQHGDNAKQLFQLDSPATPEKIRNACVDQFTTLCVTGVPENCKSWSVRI

| inhibition in vivo at 1 mg/kg [1, 3] [%] | inhibition in vivo at 10 mg/kg [1, 4] [%] | inhibition in vivo at 1 mg/kg [1, 5] [%] | inhibition in vivo at 10 mg/kg [1, 6] [%] | inhibition in vivo at 1 mg/kg [1, 7] [%] | inhibition in vivo at 10 mg/kg [1, 8] [%] | SMILES | hypouricemic effect [2] |
| --- | --- | --- | --- | --- | --- | --- | --- |
| ≥ 60 | ≥ 70 | ≥ 80 | ≥ 80 | ≥ 25 | ≥ 40 | Cc1nc(-c2ccc(OCC(C)C)c(-n3ccnn3)c2)sc1C(=O)O [Compound 17, 4-methyl-2-[4-(2-methylpropoxy)-3-(1H-1,2,3-triazol-1-yl)phenyl]-1,3-thiazole-5-carboxylic acid] | – |
| – | – | – | – | – | – | Cc1nc(-c2ccc(OCC(C)C)c(-n3cnnn3)c2)sc1C(=O)O [Compound 25, 4-methyl-2-[4-(2-methylpropoxy)-3-(1H-1,2,3,4-tetrazol-1-yl)phenyl]-1,3-thiazole-5-carboxylic acid] | showed a hypouricemic effect |
| ≥ 60 | ≥ 70 | ≥ 80 | ≥ 80 | ≥ 25 | ≥ 40 | Cc1nc(-c2ccc(OCC(C)(C)C)c(-n3cnnn3)c2)sc1C(=O)O [Compound 26, 2-[4-(2,2-dimethylpropoxy)-3-(1H-1,2,3,4-tetrazol-1-yl)phenyl]-4-methyl-1,3-thiazole-5-carboxylic acid] | – |
